According to patent US20260008760A1, “DIPEPTIDYL PEPTIDASE 1 INHIBITORS AND USES THEREOF” (Insmed Incorporated, priority 2024, published 2026):
“And” between values parts separate entries of the source, which are not always exact repeats. Equal values may be shown once. Read-outs that look alike come from different tables or passages of the source.

How the values were obtained:
DPP1 in HL-60 cells [1] = target: T1, DPP1 in HL-60 cells (Homo sapiens, UniProt P53634); assay: DPP1 Cell Single-Point Percent Inhibition Testing; assay type: cell-based; design: host or cells: HL-60 cells; conditions: final compound concentration 5 nM, n = 1
T1 sequence (P53634 25-463): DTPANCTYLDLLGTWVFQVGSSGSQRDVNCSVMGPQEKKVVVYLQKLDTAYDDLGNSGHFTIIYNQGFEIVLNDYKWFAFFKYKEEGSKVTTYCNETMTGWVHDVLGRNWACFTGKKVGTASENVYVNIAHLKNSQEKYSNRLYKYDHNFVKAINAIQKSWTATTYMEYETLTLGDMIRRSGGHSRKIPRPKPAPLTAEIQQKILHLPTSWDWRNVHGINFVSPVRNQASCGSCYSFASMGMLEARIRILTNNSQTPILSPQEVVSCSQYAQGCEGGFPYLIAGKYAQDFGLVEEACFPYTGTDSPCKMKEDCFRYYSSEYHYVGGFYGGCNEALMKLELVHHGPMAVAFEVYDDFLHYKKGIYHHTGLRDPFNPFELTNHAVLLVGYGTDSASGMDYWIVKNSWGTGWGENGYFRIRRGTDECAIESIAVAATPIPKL
Outline: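 HL-60 cells in unsupplemented RPMI preincubated 60 min at 37 °C with test article (5 nM final, 0.1% DMSO), then given cell-permeable H-Gly-Phe-AFC (100 μM final) for 30 min. Fluorescence at 400/505 nm; percent inhibition versus vehicle after subtracting cell-free background and 10 μM brensocatib non-specific signal.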

human DPP1 enzyme [2] = target: T2, human DPP1 enzyme (Homo sapiens, UniProt P53634); assay: Human DPP1 Enzyme Single-Point Percent Inhibition Testing (HL-60 lysate); assay type: biochemical; design: A crude lysate of HL-60 cells (ATCC; Manassas, VA) was used as a source of human DPP1 enzyme; host or cells: HL-60 cells (crude lysate); conditions: final compound concentration of 10 nM, 400 μM H-Gly-Arg-AMC, n = 1
Outline: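 Enzyme source was HL-60 cell lysate in MES pH 6.0 buffer with NaCl and DTT, pre-incubated 10 min at 37° C with 10 nM compound (final, 1% DMSO). Cleavage of 400 μM H-Gly-Arg-AMC was followed at 350/450 nm over 90 min at 37° C, and percent inhibition was taken against vehicle wells.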
Target sequence in this assay (P53634 25-463): as above

human DPP1 enzyme [3] = target: T2, human DPP1 enzyme; assay: Human DPP1 Enzyme IC50 Assay; assay type: biochemical; design: was first proteolytically processed into its mature form using recombinant human cathepsin L; purchased R&D Systems
Outline: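 Recombinant human DPP1, pre-activated with cathepsin L (pH 4.5), was preincubated with compound 10 min at 37 °C in MES pH 6.0, 50 mM NaCl, 5 mM DTT, 1% DMSO. Cleavage of 400 μM (final) H-Gly-Arg-AMC followed by fluorescence (350/450 nm) over 90 min at 37 °C; IC50 from four-parameter logistic fit versus no-compound control.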
Target sequence in this assay (P53634 25-134 limits assumed): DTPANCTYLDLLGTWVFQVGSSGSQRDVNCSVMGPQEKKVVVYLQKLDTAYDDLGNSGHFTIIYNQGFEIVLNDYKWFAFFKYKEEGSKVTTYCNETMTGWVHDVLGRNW
Target sequence in this assay (P53634 231-394 limits assumed): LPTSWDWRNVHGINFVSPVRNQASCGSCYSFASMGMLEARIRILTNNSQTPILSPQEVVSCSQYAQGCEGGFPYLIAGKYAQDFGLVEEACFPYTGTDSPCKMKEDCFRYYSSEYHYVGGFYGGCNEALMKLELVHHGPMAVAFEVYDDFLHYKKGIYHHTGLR
Target sequence in this assay (P53634 395-463 limits assumed): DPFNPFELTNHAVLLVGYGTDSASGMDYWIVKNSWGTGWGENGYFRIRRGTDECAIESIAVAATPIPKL

DPP1 in HL-60 cells [4] = target: T1, DPP1 in HL-60 cells; assay: DPP1 Cell IC50 assay; assay type: cell-based; design: host or cells: HL-60 cells; conditions: 60 min pre-incubation, H-Gly-Phe-AFC substrate, average of n runs
Outline: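 HL-60 cells in PBS (5×10^5 live cells per mL) pre-incubated with compound (0.5% DMSO) 60 min at 37° C, 5% CO2, then H-Gly-Phe-AFC substrate (500 μM stock) added for 30 min. Fluorescence at 400/505 nm; % inhibition vs vehicle wells, IC50 from four-parameter logistic fit.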

[5] = activated recombinant human DPP1, 400 μM H-Gly-Arg-AMC, 10 minutes pre-incubation at 37° C., pH 6.0, average of n runs, read-out: Avg. IC50 (Human DPP1 enzyme IC50 value ranges)
[6] = read-out: Avg. IC50 (DPP1 Cell IC50 value ranges)
[7] = Avg. IC50 (DPP1 Cell IC50 value ranges)

CO[C@H]1CCO[C@H](C(=O)N[C@H](C#N)Cc2ccc(-c3cc4c(C)nc(C)cn4c3)cc2)CNC1 [Compound A92]
inhibition at 0.005 µM (DPP1 in HL-60 cells [1]): ≤ 76.5% | inhibition at 0.01 µM (human DPP1 enzyme [2]): ≤ 40% | IC50 (human DPP1 enzyme [3]; [5]): > 15 nM | IC50 (DPP1 in HL-60 cells [4]; [6]): > 2.5 nM and 1 to 2.5 nM

C[C@@H]1NC[C@@H](C(=O)N[C@H](C#N)Cc2ccc(-c3ccc4c(n3)CCCN4)cc2)OC[C@@H]1O [Compound A105]
inhibition at 0.005 µM (DPP1 in HL-60 cells [1]): ≤ 76.5% | inhibition at 0.01 µM (human DPP1 enzyme [2]): ≤ 40% | IC50 (human DPP1 enzyme [3]; [5]): > 15 nM | IC50 (DPP1 in HL-60 cells [4]; [6]): > 2.5 nM

C[C@@H]1NC[C@@H](C(=O)N[C@H](C#N)Cc2ccc(-c3cnc4c(n3)CCCC4)cc2F)OC[C@@H]1O [Compound A109]
inhibition at 0.005 µM (DPP1 in HL-60 cells [1]): ≤ 76.5% | inhibition at 0.01 µM (human DPP1 enzyme [2]): 40 to 66.7% | IC50 (human DPP1 enzyme [3]; [5]): 5 to 15 nM and < 5 nM | IC50 (DPP1 in HL-60 cells [4]; [6]): > 2.5 nM and 1 to 2.5 nM

Cc1ncc(C)n2cc(-c3ccc(C[C@@H](C#N)NC(=O)[C@@H]4CNCCCCO4)cc3)cc12 [Compound A137]
inhibition at 0.005 µM (DPP1 in HL-60 cells [1]): 76.5 to 93.9% | inhibition at 0.01 µM (human DPP1 enzyme [2]): ≤ 40% | IC50 (human DPP1 enzyme [3]; [5]): > 15 nM | IC50 (DPP1 in HL-60 cells [4]; [6]): 1 to 2.5 nM

Cc1nc(C)c2cc(-c3ccc(C[C@@H](C#N)NC(=O)[C@@H]4CNCCCCO4)cc3)cn2c1C [Compound A138]
inhibition at 0.005 µM (DPP1 in HL-60 cells [1]): 76.5 to 93.9% | inhibition at 0.01 µM (human DPP1 enzyme [2]): ≤ 40% | IC50 (human DPP1 enzyme [3]; [5]): > 15 nM | IC50 (DPP1 in HL-60 cells [4]; [6]): < 1 nM

N#C[C@H](Cc1ccc(-c2ccn3ccnc3c2)cc1)NC(=O)[C@@H]1CNCCCO1 [Compound A142]
inhibition at 0.005 µM (DPP1 in HL-60 cells [1]): ≤ 76.5% | inhibition at 0.01 µM (human DPP1 enzyme [2]): ≤ 40% | IC50 (human DPP1 enzyme [3]; [5]): > 15 nM | IC50 (DPP1 in HL-60 cells [4]; [6]): > 2.5 nM

N#Cc1ccc2c(c1)CSc1cc(C[C@@H](C#N)NC(=O)[C@@H]3CNCCCCO3)c(F)cc1-2 [Compound B17]
inhibition at 0.005 µM (DPP1 in HL-60 cells [1]): ≤ 76.5% | inhibition at 0.01 µM (human DPP1 enzyme [2]): 40 to 66.7% | IC50 (human DPP1 enzyme [3]; [5]): 5 to 15 nM | IC50 (DPP1 in HL-60 cells [4]; [6]): > 2.5 nM

N#Cc1ccc2c(c1)COc1cc(C[C@@H](C#N)NC(=O)[C@@H]3CNCCCO3)c(F)cc1-2 [Compound B32]
inhibition at 0.005 µM (DPP1 in HL-60 cells [1]): 76.5 to 93.9% | inhibition at 0.01 µM (human DPP1 enzyme [2]): 40 to 66.7% | IC50 (human DPP1 enzyme [3]): 5 to 15 nM | IC50 (DPP1 in HL-60 cells [4]; [7]): 1 to 2.5 nM

N#Cc1ccc2c(c1)-c1cc(F)c(CC(C#N)NC(=O)[C@@H]3CNCCCO3)cc1OC2 (some centres unmarked) [Compound B33]
inhibition at 0.005 µM (DPP1 in HL-60 cells [1]): ≤ 76.5% | inhibition at 0.01 µM (human DPP1 enzyme [2]): ≤ 40% | IC50 (human DPP1 enzyme [3]): > 15 nM | IC50 (DPP1 in HL-60 cells [4]; [7]): > 2.5 nM

Cn1c(=O)oc2cc3c(cc21)-c1cc(F)c(C[C@@H](C#N)NC(=O)[C@@H]2CNCCCCO2)cc1SC3 [Compound C8]
inhibition at 0.005 µM (DPP1 in HL-60 cells [1]): ≤ 76.5% | inhibition at 0.01 µM (human DPP1 enzyme [2]): ≥ 66.7% | IC50 (human DPP1 enzyme [3]; [5]): < 5 nM | IC50 (DPP1 in HL-60 cells [4]; [6]): 1 to 2.5 nM

Cn1c(=O)oc2ccc3c(c21)COc1cc(CC(C#N)NC(=O)[C@@H]2CNCCCO2)c(F)cc1-3 (some centres unmarked) [Compound C29]
inhibition at 0.005 µM (DPP1 in HL-60 cells [1]): ≤ 76.5% | inhibition at 0.01 µM (human DPP1 enzyme [2]): ≤ 40% | IC50 (human DPP1 enzyme [3]; [5]): > 15 nM | IC50 (DPP1 in HL-60 cells [4]; [6]): > 2.5 nM and 1 to 2.5 nM

N#C[C@H](Cc1cc2c(cc1F)-c1cc3c(cc1CO2)COC31CCN(C2COC2)CC1)NC(=O)[C@@H]1CNCCCO1 [Compound C31]
inhibition at 0.005 µM (DPP1 in HL-60 cells [1]): ≤ 76.5% | inhibition at 0.01 µM (human DPP1 enzyme [2]): ≥ 66.7% | IC50 (human DPP1 enzyme [3]; [5]): < 5 nM | IC50 (DPP1 in HL-60 cells [4]; [6]): > 2.5 nM

N#C[C@H](Cc1cc2c(cc1F)-c1cc3c(cc1CO2)COC31CCN(C2COC2)CC1)NC(=O)[C@@H]1CNCCCCO1 [Compound C32]
inhibition at 0.005 µM (DPP1 in HL-60 cells [1]): ≤ 76.5% | inhibition at 0.01 µM (human DPP1 enzyme [2]): ≥ 66.7% | IC50 (human DPP1 enzyme [3]; [5]): < 5 nM | IC50 (DPP1 in HL-60 cells [4]; [6]): > 2.5 nM

CO[C@H]1CCO[C@H](C(=O)N[C@H](C#N)Cc2ccc(-c3ccc4c(c3)C3(CCN(C5COC5)CC3)OC4)cc2F)CNC1 [Compound F5]
inhibition at 0.005 µM (DPP1 in HL-60 cells [1]): ≤ 76.5% | inhibition at 0.01 µM (human DPP1 enzyme [2]): ≥ 66.7% | IC50 (human DPP1 enzyme [3]; [5]): < 5 nM | IC50 (DPP1 in HL-60 cells [4]; [6]): 1 to 2.5 nM

CO[C@@H]1CCNC[C@@H](C(=O)N[C@H](C#N)Cc2ccc(-c3ccc4c(c3)C3(CCN(C5COC5)CC3)OC4)cc2F)OC1 [Compound F6]
inhibition at 0.005 µM (DPP1 in HL-60 cells [1]): ≤ 76.5% | inhibition at 0.01 µM (human DPP1 enzyme [2]): ≥ 66.7% | IC50 (human DPP1 enzyme [3]; [5]): < 5 nM | IC50 (DPP1 in HL-60 cells [4]; [6]): > 2.5 nM

CCN1C(=O)Cc2ccc(-c3ccc(C[C@@H](C#N)NC(=O)[C@@H]4CNCC[C@@H](OC)CO4)c(F)c3)cc21 [Compound G2]
inhibition at 0.005 µM (DPP1 in HL-60 cells [1]): ≤ 76.5% | inhibition at 0.01 µM (human DPP1 enzyme [2]): ≥ 66.7% | IC50 (human DPP1 enzyme [3]; [5]): < 5 nM | IC50 (DPP1 in HL-60 cells [4]; [6]): 1 to 2.5 nM

CCN1C(=O)Cc2ccc(-c3ccc(C[C@@H](C#N)NC(=O)[C@@H]4CN[C@@H](C)[C@@H](O)CO4)cc3)cc21 [Compound G9]
inhibition at 0.005 µM (DPP1 in HL-60 cells [1]): ≤ 76.5% | inhibition at 0.01 µM (human DPP1 enzyme [2]): ≤ 40% | IC50 (human DPP1 enzyme [3]; [5]): > 15 nM | IC50 (DPP1 in HL-60 cells [4]; [6]): > 2.5 nM
